These results are taken from ChEMBL document CHEMBL5143718, “Rational Design of a Theranostic Agent Triggered by Endogenous Nitric Oxide in a Cellular Model of Alzheimer's Disease” (J Med Chem, 2022).

Calls of active or inactive are those of the source. No cut-off for these calls is given here.

Data set [1] deals with HT-22. The data set can be described thus: Cytotoxicity against mouse HT-22 cells assessed as reduction in cell viability at 5 uM after 36 hrs by CCK8 assay. The class given is toxicity, cell-based. The conditions noted are these: ht-22, 36 h.
In data set [2] the test system is BV-2. Description: Cytotoxicity against mouse BV-2 cells assessed as reduction in cell viability at 1 to 10 uM incubated for 24 hrs by CCK8 assay. The class given is toxicity, cell-based. The settings on record: bv-2, 24 h, dose 1-10 µM.
For data set [3], the system named is HT-22. Description: Cytotoxicity against mouse HT-22 cells assessed as reduction in cell viability at < 5 uM incubated for 24 hrs by CCK8 assay. The class given is toxicity, cell-based. The settings on record: ht-22, 24 h. A general note: Formazan colour is commonly taken as a measure of viable cells.
Data set [4] concerns HT-22. The data set can be described thus: Antioxidant activity in mouse HT-22 cells cocultured with BV-2 cells assessed as increase in GSH level at 5 uM incubated for 48 hrs by DCFH-DA staining based microplate reader analysis. It counts as functional.
Data set [5] relates to HT-22. Description: Cytotoxicity against mouse HT-22 cells assessed as reduction in cell viability at higher concentration incubated for 24 hrs by CCK8 assay. The class given is toxicity, cell-based. The settings on record: ht-22, 24 h.
Data set [6] concerns HT-22. The data set can be described thus: Antioxidant activity in mouse HT-22 cells cocultured with BV-2 cells assessed as upregulation of HO-1 mRNA expression at 5 uM after 48 hrs by qRT-PCR analysis. It counts as functional, cell-based. In general terms: In qPCR the cycle at which signal appears reflects the starting amount.
The test system of data set [7] is HT-22. Description: Cytotoxicity against mouse HT-22 cells assessed as reduction in cell viability at 5 uM after 24 hrs by CCK8 assay. The class given is toxicity, cell-based. The settings on record: ht-22, 24 h.
Data set [8] deals with HT-22. Description: Antioxidant activity in mouse HT-22 cells cocultured with BV-2 cells assessed as ROS scavenging activity at 5 uM incubated for 48 hrs by DCFH-DA staining based microplate reader analysis. The class given is functional.
Data set [9] concerns HT-22. Description: Antioxidant activity in mouse HT-22 cells cocultured with BV-2 cells assessed as reduction in glutamic acid level at 5 uM incubated for 24 hrs. The class given is functional.
The subject of data set [10] is HT-22. Description: Cytotoxicity against mouse HT-22 cells assessed as increase in live/dead cells ratio at 5 uM after 48 hrs by Live/dead staining based fluorescence microscopic analysis. The conditions noted are these: ht-22, 48 h. It counts as toxicity, cell-based.
Data set [11] has as its system HT-22. Description: Antioxidant activity in mouse HT-22 cells cocultured with BV-2 cells assessed as upregulation of NQO1 mRNA expression at 5 uM after 48 hrs by qRT-PCR analysis. It counts as functional, cell-based.
Data set [12] in a line: Cytotoxicity against mouse HT-22 cells assessed as cell viability at 5 uM after 48 hrs by CCK8 assay. The class given is toxicity, cell-based. The settings on record: read-out: Activity.
A short description of data set [13]: Effective permeability of compound in PBS buffer at pH 7.4 incubated for 18 hrs by PAMPA assay. The class given is ADME. The conditions noted are these: read-out: Peff. A general note: PAMPA measures passive passage across an artificial lipid membrane.
Data set [14] in a line: Cytotoxicity against mouse HT-22 cells cocultured with BV-2 cells assessed as cell viability at 5 uM after 48 hrs by CCK8 assay (reference value: 5.19 +/- 1.60%). It counts as toxicity, cell-based. The conditions noted are these: read-out: Activity.
Data set [15] can be described thus: Drug uptake in LPS-stimulated mouse BV-2 cells assessed as increase in fluorescence at 10 uM pretreated with LPS and carboxyl-PTIO for 3 hrs followed by compound addition and measured after 3 hrs. The class given is ADME, cell-based.
The nature of data set [16]: Drug uptake in mouse BV-2 cells assessed as increase in fluorescence at 10 uM after 3 hrs. The class given is ADME, cell-based. The conditions noted are these: bv-2, 3 h.
Data set [17] can be described thus: Drug uptake in L-arginine stimulated mouse BV-2 cells assessed as increase in fluorescence at 10 uM pretreated with L-arginine and L-NAA for 16 hrs followed by compound addition and measured after 3 hrs. The class given is ADME, cell-based. The settings on record: bv-2, 3 h.
Data set [18] is described as follows: Drug uptake in INFgamma-stimulated mouse BV-2 cells assessed as increase in fluorescence at 10 uM pretreated with INFgamma and L-NAA for 16 hrs followed by compound addition and measured after 3 hrs. It counts as ADME, cell-based. The conditions noted are these: bv-2, 3 h.
Data set [19] can be described thus: Drug uptake in INFgamma-stimulated mouse BV-2 cells assessed as increase in fluorescence at 10 uM pretreated with INFgamma and carboxyl-PTIO for 3 hrs followed by compound addition and measured after 3 hrs. The class given is ADME, cell-based.
Data set [20] is described as follows: Drug uptake in mouse HT-22 cells cocultured with BV-2 cells assessed as increase in fluorescence at 10 uM after 12 hrs. The settings on record: ht-22, 12 h. It counts as ADME, cell-based.
Data set [21] deals with HT-22. The data set can be described thus: Cytotoxicity against mouse HT-22 cells cocultured with BV-2 cells assessed as increase in live/dead cells ratio at 5 uM after 48 hrs by Live/dead staining based fluorescence microscopic analysis. The settings on record: ht-22, 48 h. It counts as toxicity, cell-based.
Data set [22] in a line: Drug uptake in L-arginine stimulated mouse BV-2 cells assessed as increase in fluorescence at 10 uM pretreated with L-arginine and carboxyl-PTIO for 3 hrs followed by compound addition and measured after 3 hrs. It counts as ADME, cell-based.
A short description of data set [23]: Drug uptake in LPS-stimulated mouse BV-2 cells assessed as increase in fluorescence at 10 uM pretreated with LPS and L-NAA for 16 hrs followed by compound addition and measured after 3 hrs. The conditions noted are these: bv-2, 3 h. The class given is ADME, cell-based.
Data set [24] relates to BV-2. Description: Cytotoxicity against mouse BV-2 cells assessed as reduction in cell viability at 10 uM incubated for 24 hrs by CCK8 assay. It counts as toxicity, cell-based. The settings on record: bv-2, 24 h.

Regarding `CC12CC3CC(C)(C1)CC(NCCOCCOCCOCCOc1ccc(N4c5ccccc5N(c5ccccc5)c5c4c4ccccc4c4ccccc54)cc1)(C3)C2`, the Activity result is “Non-Toxic” in the data set on HT-22 [1]; “Non-Toxic” in the data set with BV-2 [2]; “Non-Toxic” in the data set with HT-22 [3]; 103.7 in the data set on HT-22 [4]; “Non-Toxic” with HT-22 [5]; “Non-Toxic” with HT-22 [7]. The Activity with HT-22 [8] is on record as 732; in the data set with HT-22 [9], 0.32; with HT-22 [10], “Non-Toxic”. The result with HT-22 [6] and in the data set on HT-22 [11] was Active. In data set [12], the viability at 48 h, 5 µM amounted to 45.9%. Also, the Papp at 18 h in [13] amounted to 5.73 ×10⁻⁶ cm/s.
As to `CC12CC3CC(C)(C1)CC(NCCOCCOCCOCCO)(C3)C2`, in the data set on HT-22 [9], the outcome was Active. Besides, the viability at 48 h, 5 µM in [12] was 20.1%.
Consider `O=C1C(=O)c2ccccc2-c2ccccc21` [9,10-PHENANTHRENEQUINONE], for which, in [14], the viability at 48 h, 5 µM came out at 4.46%. Besides, the Drug uptake result in [15], in data set [16], in data set [17], in data set [18], in data set [19] and in [20] was “Active” throughout. Also, the Drug uptake result in data set [22] and in [23] was “Active” throughout. The Activity result with HT-22 [21] was “Non-Toxic”.
Consider `O=C1C=CC(=O)C=C1` [BENZOQUINONE], for which the viability at 48 h, 5 µM in data set [14] came to 4.33%. In addition, the Drug uptake result in data set [15], in data set [16], in data set [17], in [18], in data set [19] and in [20] was “Active” in each case. Also, the Drug uptake result in [22] and in [23] was “Active” in each case. For the same compound, the Activity entry in the data set on HT-22 [21] was “Non-Toxic”.
Turning to `CC12CC3CC(C)(C1)CC(N)(C3)C2` [MEMANTINE], the Activity entry is “Non-Toxic” in the data set with HT-22 [1]; “Non-Toxic” in the data set on HT-22 [3]; 91.9 in the data set on HT-22 [4]; “Non-Toxic” in the data set on HT-22 [5]; “Non-Toxic” in the data set with HT-22 [7]; 586.7 in the data set on HT-22 [8]. Also, the Activity is on record as 0.47 in the data set on HT-22 [9] and more than 70% in the data set with BV-2 [24]. In addition, the viability at 48 h, 5 µM in [12] worked out at 13.9%.
